Legend:
[1] = target: T1, recombinant NirK protein (MRA2164) (Mycobacterium tuberculosis, UniProt A5U4H6); test: biochemical; settings: read-out: % inhibition at 5 mM
T1 construct: gene yfiH

[2] = target: T1, recombinant NirK protein (MRA2164)
O=NO = test: purified protein; settings: pH 7.0; 37.0 °C

T1 sequence (A5U4H6 entry or part of it): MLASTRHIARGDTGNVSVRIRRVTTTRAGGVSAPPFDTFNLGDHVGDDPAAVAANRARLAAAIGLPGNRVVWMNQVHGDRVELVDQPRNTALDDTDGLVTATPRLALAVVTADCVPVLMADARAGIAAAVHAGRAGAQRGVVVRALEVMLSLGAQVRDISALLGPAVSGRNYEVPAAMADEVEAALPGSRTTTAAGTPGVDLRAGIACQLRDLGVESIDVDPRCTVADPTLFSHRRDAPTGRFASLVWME

| Compound | % inhibition at 5 mM [2] | further results |
| --- | --- | --- |
| NC(=O)C1=CN([C@@H]2O[C@H](COP(=O)(O)OP(=O)(O)OC[C@H]3O[C@@H](n4cnc5c(N)ncnc54)[C@H](O)[C@@H]3O)[C@@H](O)[C@H]2O)C=CC1 [NADH] |  | inhibition at 5000 µM [1]: 92.3% |
| [N-]=[N+]=[N-] [azide] | 95.16% |  |
| O=[N+]([O-])O [nitrate] | 47.40% |  |
| recombinant NirK protein (MRA2164) (Mycobacterium tuberculosis H37Ra) |  | Km (O=NO): 17.16 mM |

— PMC8494734 (Scientific Reports, 2021)
